Results: patent US20220117968A1, “THIENO[2,3-D)PYRIMIDINES AND BENZOFURO(3,2-D)PYRIMIDINES AS ANTIMICROBIAL AGENTS” (Saint Louis University, priority 2017, published 2022)
Values after ≈ are worked out from the molar mass of the structure shown.

What was measured:
WT Mtb Erdman = assay: Disk zone of inhibition assay; type: cell-based; details: Mycobacterium tuberculosis, 240 h, radius of zone absent of bacterial growth, 5 μl of 100 mM stock in DMSO on disk, Middlebrook 7H10 agar, 10 days at 37° C.
WT Mtb Erdman strain = assay: Microplate Alamar Blue Assay (MABA); type: cell-based; details: Mycobacterium tuberculosis, Middlebrook 7H9 media, 7 days at 37° C., resazurin 24 hours; for MIC50: concentration that inhibits mycobacterial survival by 50%, read-out: MABA MIC50; for MIC90: concentration that inhibits mycobacterial survival by 90%, read-out: MABA MIC90

Row | SMILES | zone of inhibition at 100000 µM (stock) (WT Mtb Erdman) [mm] | MIC50 (WT Mtb Erdman strain) [µM] | MIC90 (WT Mtb Erdman strain) [µM]
1 | CCCCNc1nc(C(F)(F)F)nc2sccc12 [Example 1545, N-Butyl-2-(trifluoromethyl)thieno[2,3-d]pyrimidin-4-amine] | 1.8 | 26.9 (≈ 7.41 µg/mL) | 30.5 (≈ 8.4 µg/mL)
2 | CCc1nc(N(CC)CC)c2cc(C)sc2n1 [Example 0943, N,N,2-triethyl-6-methylthieno[2,3-d]pyrimidin-4-amine] | 4 | > 50 | > 50
3 | CCc1nc(NC2CCC2)c2cc(C)sc2n1 [Example 1019, N-Cyclobutyl-2-ethyl-6-methylthieno[2,3-d]pyrimidin-4-amine] | 10 | 11.1 (≈ 2.75 µg/mL) | 26.4 (≈ 6.53 µg/mL)
4 | CCc1nc(N)c2cc(C)sc2n1 [Example 1060, 2-Ethyl-6-methyl-thieno[2,3-d]pyrimidin-4-amine] | 0 | 10 (≈ 1.93 µg/mL) | 17.2 (≈ 3.32 µg/mL)
5 | CCc1nc(NC(C)(C)C)c2cc(C)sc2n1 [Example 1069, N-tert-Butyl-2-ethyl-6-methyl-thieno[2,3-d]pyrimidin-4-amine] | 5 | 30.9 (≈ 7.71 µg/mL) | > 50
6 | CCc1nc(NCC(F)(F)F)c2cc(C)sc2n1 [Example 1072, 2-Ethyl-6-methyl-N-(2,2,2-trifluoroethyl)thieno[2,3-d]pyrimidin-4-amine] | 9 | 6.32 (≈ 1.74 µg/mL) | 19.2 (≈ 5.29 µg/mL)
7 | CCc1nc(NCCCO)c2cc(C)sc2n1 [Example 0936, 3-({2-ethyl-6-methylthieno[2,3-d]pyrimidin-4-yl}amino)propan-1-ol] | 0.75 | 26 (≈ 6.54 µg/mL) | 48.2 (≈ 12.1 µg/mL)
8 | CCc1nc(NCCCC(F)(F)F)c2ccsc2n1 [Example 1366, 2-Ethyl-N-(4,4,4-trifluorobutyl)thieno[2,3-d]pyrimidin-4-amine] | 14 | 0.00133 (≈ 0.000385 µg/mL) | 0.00369 (≈ 0.00107 µg/mL)
9 | CCc1nc(N2CCCCC2)c2cc(C)sc2n1 [Example 0942, 1-{2-ethyl-6-methylthieno[2,3-d]pyrimidin-4-yl}piperidine] | 5 | 47.5 (≈ 12.4 µg/mL) | > 50
10 | CCc1nc(NC2CC2)c2c(C)csc2n1 [Example 1701, N-Cyclopropyl-2-ethyl-5-methylthieno[2,3-d]pyrimidin-4-amine] | 1.7 | 9.77 (≈ 2.28 µg/mL) | 16.1 (≈ 3.76 µg/mL)
11 | CCc1nc(NCCCOC)c2cc(C)sc2n1 [Example 0941, 2-ethyl-N-(3-methoxypropyl)-6-methylthieno[2,3-d]pyrimidin-4-amine] | 4 | 7.79 (≈ 2.07 µg/mL) | 16.3 (≈ 4.33 µg/mL)
12 | CCCCNc1nc(C)nc2sc3c(c12)CCCC3 [Example 0881, N-butyl-5-methyl-8-thia-4,6-diazatricyclo[7.4.0.0^2,^7]trideca-1(9),2,4,6-tetraen-3-amine] | 7 | 6.45 (≈ 1.78 µg/mL) | 13.4 (≈ 3.69 µg/mL)
13 | CCc1nc(NC2CC2)c2ccsc2n1 [Example 1074, N-Cyclopropyl-2-ethyl-thieno[2,3-d]pyrimidin-4-amine] | 21 | 6.1 (≈ 1.34 µg/mL) | 22.7 (≈ 4.98 µg/mL)
14 | CCc1nc(NC2CC2)c2cc(C)sc2n1 [Example 0946, N-Cyclopropyl-2-ethyl-6-methylthieno[2,3-d]pyrimidin-4-amine] | 27 | 0.633 (≈ 0.148 µg/mL) | 2.04 (≈ 0.476 µg/mL)
15 | CCc1nc(NC2CCCC2)c2cc(C)sc2n1 [Example 0951, N-cyclopentyl-2-ethyl-6-methylthieno[2,3-d]pyrimidin-4-amine] | 1 | > 50 | > 50
16 | CCCCNc1nc(C)nc2c1oc1ccccc12 [Example 0927, N-butyl-4-methyl-8-oxa-3,5-diazatricyclo[7.4.0.0^2,^7]trideca-1(9),2(7),3,5,10,12-hexaen-6-amine] | 10 | 1.77 (≈ 0.452 µg/mL) | 4.02 (≈ 1.03 µg/mL)
17 | Cc1cc2c(NC3CC3)nc(C(C)C)nc2s1 [Example 1061, N-Cyclopropyl-2-isopropyl-6-methyl-thieno[2,3-d]pyrimidin-4-amine] | 19 | 0.615 (≈ 0.152 µg/mL) | 1.28 (≈ 0.317 µg/mL)
18 | CCCCN(C)c1nc(CC)nc2sc(C)cc12 [Example 1021, N-Butyl-2-ethyl-N,6-dimethylthieno[2,3-d]pyrimidin-4-amine] | 10 | 3.93 (≈ 1.04 µg/mL) | 9.81 (≈ 2.58 µg/mL)
19 | CCCCNc1nc(CC)nc2scc(C)c12 [Example 1699, N-Butyl-2-ethyl-5-methylthieno[2,3-d]pyrimidin-4-amine] | 6 | 35.5 (≈ 8.85 µg/mL) | 45.5 (≈ 11.3 µg/mL)
20 | FC(F)(F)c1nc(NC2CC2)c2ccsc2n1 [Example 1541, N-Cyclopropyl-2-(trifluoromethyl)thieno[2,3-d]pyrimidin-4-amine] | 1.8 | 36.8 (≈ 9.54 µg/mL) | > 50
21 | CCc1nc(NCCOC)c2cc(C)sc2n1 [Example 0950, 2-ethyl-N-(2-methoxyethyl)-6-methylthieno[2,3-d]pyrimidin-4-amine] | 0 | 15.9 (≈ 4 µg/mL) | 28.4 (≈ 7.14 µg/mL)
22 | CCCCNc1nc(CC)nc2sc(C)cc12 [Example 0728, N-butyl-2-ethyl-6-methylthieno[2,3-d]pyrimidin-4-amine] | – | 0.182 (≈ 0.0454 µg/mL) | 0.524 (≈ 0.131 µg/mL)
23 | CCc1nc(NCCC(C)C)c2cc(C)sc2n1 [Example 1022, 2-Ethyl-6-methyl-N-(3-methylbutyl)thieno[2,3-d]pyrimidin-4-amine] | 14 | 0.329 (≈ 0.0867 µg/mL) | 0.96 (≈ 0.253 µg/mL)
24 | Cc1cc2c(NCCCc3ccccc3)nc(C(F)(F)F)nc2s1 [Example 1536, 6-Methyl-N-(3-phenylpropyl)-2-(trifluoromethyl)thieno[2,3-d]pyrimidin-4-amine] | – | 0.386 (≈ 0.136 µg/mL) | 0.479 (≈ 0.168 µg/mL)
25 | CCCCNc1nc(C(F)(F)C(F)(F)F)nc2sccc12 [Example 1547, N-Butyl-2-(perfluoroethyl)thieno[2,3-d]pyrimidin-4-amine] | – | 21.9 (≈ 7.12 µg/mL) | 23.8 (≈ 7.74 µg/mL)
